Columns and labels:
Ross male broilers [1] = assay: Example 1: 42 d broiler trial, antibiotic in the feed present, absent or replaced; type: in vivo; settings: PE1 4 kg per ton feed
Description: The effects of presence/absence/replacement of the antibiotics in the feed were examined. A group of 2000 Ross male broilers were randomly divided into four treatments and fed a mesh diet ad libitum. […] Body weight, feed intake and mortality were measured during the 42 d broiler trial. At the end of the trial, feed conversion was calculated and % cumulative mortality was recorded. Results indicated a 4.1% improved feed conversion in those birds which received an antibiotic growth promoter (Maxus™), compared to negative control (1.758 and 1.834 respectively). The addition of pomegranate extract powder improved feed conversion by 4.9% as compared to negative control treatment (1.744 and 1.834 respectively). Mortality results at end of trial were as follows: negative control 4.1%, antibiotic growth promoter 3.6% and pomegranate extract powder 1.4%.

Ross male broilers [2] = assay: Example 2: broiler trial testing the efficacy of a taste masking agent; type: in vivo; settings: alternative probiotic growth additive, treatment 5
Text: The objective of this trial was to test the efficacy of a taste masking agent. The trial examined the performance parameters in 2000 Ross male broilers randomly divided into 5 treatment groups. All broilers were fed mash feed ad libitum. Treatment 1, negative control, without addition of any growth promoter in feed, treatment 2, positive control with an antibiotic growth promoter avilamycin (Maxus™), treatment 3 received 2 kg additive PE1 of the invention per ton feed, treatment 4 received 2 kg additive PE1 of the invention per ton feed with a taste masking agent including thaumatin, and treatment 5 received an alternative probiotic growth additive (lactobacillus). Use of the masking agents improved broiler body weight results from 28-44 d period by 4.2% (1480 g vs 1420 g). Final body weight results at 44 d was improved by 3.6% in those broilers that received the masking agent as compared to those without. (2748 vs 2652). Feed conversion improved by 5.4% in those broilers receiving masking agent (1.84 instead of 1.94 kg/kg).

| Compound | cumulative mortality at end of trial (Ross male broilers [1]; 42 d trial, negative control 4.1%) [%] | improved feed conversion compared to negative control (Ross male broilers [1]; end of 42 d trial, diet ad libitum) [%] | feed conversion (Ross male broilers [1]; end of 42 d trial, negative control 1.834) | body weight throughout the trial versus both pomegranate extract groups (Ross male broilers [2]) |
| --- | --- | --- | --- | --- |
| COC[C@H]1O[C@@H](OC2OC[C@@H]3O[C@]4(O[C@H]3[C@H]2OC(=O)C(C)C)O[C@H](C)[C@@](O)(C(C)=O)[C@@H]2OCO[C@H]24)[C@@H](OC)[C@@H](O)[C@@H]1O[C@@H]1O[C@H](C)[C@H](OC)[C@H](O[C@H]2C[C@@]3(C)OC4(C[C@@H](O)[C@H](O[C@H]5C[C@@H](O)[C@H](OC(=O)c6c(C)c(Cl)c(O)c(Cl)c6OC)[C@@H](C)O5)[C@@H](C)O4)O[C@@H]3[C@@H](C)O2)[C@H]1O (stereo partly shown) [avilamycin] | 3.6 | 4.1 | 1.758 |  |
| lactobacillus |  |  |  | consistently lower |
